Source: patent US7943181B2, “Natural immunostimulant compositions, methods for obtaining the same and pharmaceutical formulations thereof” (Himalaya Global Holdings Ltd., priority 2004, dated 2011)
Read-outs that look alike come from different tables or passages of the source.

Assays:
[1] = target: snake venom Phosphodiesterase type I (Crotalus adamanteus, UniProt J3SEZ3); conditions: cited from earlier work
[2] = system: SRBC specific immunoglobulin; assay: Humoral response: haemagglutination antibody titre against SRBC in normal and immunocompromised rats; assay type: in vivo; conditions: Wistar rats, IMS-6 200 mg/Kg orally 14 days, SRBC ip day 10, Cyclophosphamide 400 mg/Kg ip day 12, serum day 14; control 3.278 ± 0.181
[3] = Indian J. Chem, 1989; cited from earlier work
[4] = J. Chem. Soc., Pakistan, 1982; cited from earlier work
[5] = system: ACD sensitized L929 cells; assay: Assay for immunostimulatory effects: proinflammatory cytokine induced cell death after transfer of RAW 264.7 supernatant; assay type: cell-based, mouse; conditions: Table 4, extract 200 μg/ml, LPS 1 μg/ml, control 0
Description: The extracts […] to […] and SR-1 to SR-11 were subjected to biological screening in Mouse macrophage (RAW 264.7) cell and fibroblast (L929) cells for in vitro immunomodulatory activity. Following the treatment with sub toxic levels of the extract the percent death in the ACD sensitised cells was taken as end point.
The stock solution of the plant extract was prepared in specified solvent at a concentration of 50 mg/ml. The working concentration of 10 mg/ml solution was prepared in incomplete Dulbecco's Modified Eagle's Medium (DMEM) and filter sterilized for further use in the assays.
Mouse macrophage (RAW 264.7) cells and fibroblast (L929) cells were used in the in vitro assays. These were maintained in DMEM supplemented with 10% fetal calf serum (FCS) at 37° C. in a humidified atmosphere containing 5% CO2/95% air. The cells were sub cultured upon confluence.
Mouse macrophage (RAW 264.7) cells were plated at a cell density of 1×10^5 cells/well in a 96 well micro titer plate. After 24 h of incubation they were treated with filtered extract (200 μg/ml), Lipopolysaccharide (1 μg/ml) or media alone and incubated for a further period of 18-24 h. The supernatants as such or diluted ( 1/10th or 1/20th) were transferred to pre-incubated (24 h) L929 cells ([…]). […]

RAW-264.7 Cells = assay: Nitric oxide (NO) estimation, nitrite released from mouse macrophage cells; assay type: cell-based; conditions: Table 5, 48 h, LPS 1 μg/ml, control 800 ± 50
Description: Macrophages are part of immune system (innate immunity) which phagocytose the intruder organism and kill them by release of toxic Nitric Oxide (NO). In this experiment, the ability of the plant extract to stimulate the macrophages for NO production was measured as nitrite released from mouse macrophage cells. Mouse macrophage cells were plated in 96-well culture plates (1×10^5 cells/well) and incubated for 24 h at 37° C. in a humidified atmosphere containing 5% CO2/95% air. The spent media from each well was aspirated and replenished with fresh media and further incubated for 48 h with desired concentration of extract in presence or in absence of Lipopolysaccharide (LPS 1 μg/ml). NO production in the supernatant was measured by micro plate assay. Cell supernatant was mixed with an equal volume of the Griess reagent (1% sulfanilaminde and 0.1% N-[napthyl]ethylenediamine dihydrochloride in 2.5% H3PO4) at room temperature for 10 min. The absorbance at 540 nm was determined in a microtiter plate reader (Anthos HT II). NO estimation was carried out using standard curve plotted against known quantity of […]. Results presented are in μM concentration obtained from mean OD of triplicate wells of each group.

[6] = system: TNF-α production in RAW-264.7 Cells; assay: Estimation of TNF-α production by ELISA in macrophage supernatant; assay type: cell-based, mouse; conditions: Table 6; RAW 264.7 supernatant; control 1662.00 ± 3.50
Description: (§1) This experiment was carried out to know whether the plant extract has stimulatory effects on the production of proinflammatory cytokines. Mouse macrophage cells, RAW 264.7 were cultured for 48 hours in the presence or in the absence of filtered plant extract. LPS was used as stimulant for proinflammatory cytokines TNF-∝ and IL-6. Supernatant of these samples were harvested immediately for estimations of TNF-∝ and IL-6 by an ELISA as per the manufacturer's protocol and recorded the results as concentrations in pg/ml.

[7] = system: IL-6 production in RAW-264.7 Cells; assay: Estimation of IL-6 production by ELISA in macrophage supernatant; assay type: cell-based, mouse; conditions: Table 7; RAW 264.7 supernatant; control 542 ± 4
Description: as §1

Sequence of snake venom Phosphodiesterase type I (J3SEZ3 24-851 limits assumed): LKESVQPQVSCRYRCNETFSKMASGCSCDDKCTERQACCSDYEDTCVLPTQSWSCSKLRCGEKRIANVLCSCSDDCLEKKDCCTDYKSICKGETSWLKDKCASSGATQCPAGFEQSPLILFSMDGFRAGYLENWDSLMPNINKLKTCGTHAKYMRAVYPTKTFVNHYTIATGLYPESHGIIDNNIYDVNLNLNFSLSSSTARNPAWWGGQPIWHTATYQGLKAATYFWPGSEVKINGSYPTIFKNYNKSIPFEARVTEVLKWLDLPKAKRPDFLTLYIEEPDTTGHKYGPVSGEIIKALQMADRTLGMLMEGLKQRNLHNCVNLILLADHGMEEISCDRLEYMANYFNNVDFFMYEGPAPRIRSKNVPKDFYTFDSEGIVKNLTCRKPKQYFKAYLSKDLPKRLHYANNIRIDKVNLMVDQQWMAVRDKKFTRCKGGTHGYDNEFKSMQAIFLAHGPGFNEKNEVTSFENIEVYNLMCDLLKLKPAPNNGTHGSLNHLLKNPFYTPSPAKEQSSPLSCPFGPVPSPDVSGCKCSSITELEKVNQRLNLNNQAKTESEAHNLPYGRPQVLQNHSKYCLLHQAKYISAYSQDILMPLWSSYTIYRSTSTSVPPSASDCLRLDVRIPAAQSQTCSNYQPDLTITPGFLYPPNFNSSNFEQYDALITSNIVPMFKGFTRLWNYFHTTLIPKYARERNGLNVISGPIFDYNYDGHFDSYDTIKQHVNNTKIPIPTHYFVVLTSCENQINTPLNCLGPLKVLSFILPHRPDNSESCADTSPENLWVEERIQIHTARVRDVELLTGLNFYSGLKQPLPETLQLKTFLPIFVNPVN

O=C(OCc1cc(O)ccc1O[C@@H]1O[C@H](CO)[C@@H](O)[C@H](O)[C@H]1O)c1ccccc1 [salireposide]
inhibitory activity against snake venom Phosphodiesterase type I ([1]; Ahmad et al. Phytochemistry, 2003): inhibitory activity

O=P1(N(CCCl)CCCl)NCCCO1 (stereo not shown) [Cyclophosphamide]
Antibody titre [2]: 0.444 ± 0.141

OC[C@H]1O[C@@H](Oc2cc(O)c3c(c2)O[C@H](c2ccc(O)cc2)[C@H](O)C3)[C@H](O)[C@@H](O)[C@@H]1O [Symposide]
antifibrinolytic activity [3]: showed antifibrinolytic activity

C[C@H]1N[C@@H](CCCCCCCCCCC2=C[C@@H](CCCCCCCCCC[C@H]3CC[C@@H](O)[C@@H](C)N3)[C@@H]3CCCN3C2)CC[C@H]1O [Juliprosopine]
antibacterial activity [4]: exhibiting antibacterial activity

benzoylsalireposide
inhibitory activity against snake venom Phosphodiesterase type I [1]: inhibitory activity

Lipopolysaccharide [LPS]
Proinflammatory Cytokine induced Cell Death (%) [5]: 79.0% | NO Levels (RAW-264.7 Cells): 2862.50 ± 87.50 µM | TNF ∝ Levels [6]: 3432.00 ± 140.50 pg/mL | TNF ∝ Levels (pg/ml) [6]: 3432.00 ± 140.50^• pg/ml | IL-6 Conc. [7]: 11187 ± 214 pg/mL
